Data: patent EP2050455B1, “Compounds leading to an increase of the IL-12/IL-10 ratio and their use for therapy of infectious and proliferative diseases” (priority 2007, dated 2009)

Key:
[1] = test system: MoDC; assay: Surface marker expression / maturation of MoDC by flow cytometry; format: cell-based, Human
Method: (§1) The number of living cells was measured by Casy-technology. […] They were analysed for expression of CD14 versus HLA-DR. Morphology was assessed by phase contrast microscopy. […] MoDC were cultured in serum containing media (A) or serum free (B). They were left untreated (black), treated with maturation cocktail as positive control (green), or with 10 nM OspA-LP (red) for 48 hours and analysed by flow cytometry for viability or the expression of CD14, CD1a, CD86/CD80 double positive cells, CD83 and CD197 (CCR7). Data were collected from 4 independent experiments. The results are means ±SD. […] After another 24 hours the cells were analysed for IL-10 production by ELISPOT assay. […] The resulting values are given numbers of spots. […] All LP treated MoDC (red) were compared with untreated MoDC (black). The blue line represents 100 spots per 5x10^4 MoDC. […] They were analysed for IL-10 (left) and IL-12p70 production (right). Shown are 3 independent experiments using cells from different healthy donors. Compared to the untreated controls (black), IL-10 production is not depressed by LPS R60/IFN-γ (red). […] (A) number of cytokine producing cells: IL-10 (black); IL-12p70 (red). (B) ratio of IL-12p70/IL-10 producing cells. […] The resulting cells were analysed for the surface expression of both CD80 and CD86 in dot plot analyses (A), and CD83 histogram overlay (B).
Cytokines GM-CSF (800 IU/ml; Bayer Healthcare Pharmaceutical) plus GMP-certified IL-4 (500 IU/ml; CellGenix, Freiburg, Germany) were added to induce transdifferentiation from monocytes to immature monocyte-derived dendritic cells (iMoDC). After 5-7 days of culture iMoDC were analysed for the surface markers CD1a, CD209 und CD14 using the antibodies listed in the following table. Table
Maturation signals were added, including signals to trigger polarisation. The cells were further cultured for another 2 days.
Alternatively, the maturation phase was split into individual steps: • Step 1: TLR agonists lipopeptides • Step 2: presence of the previous inducers, TLR agonists lipopolysaccharide added in the presence of IFN-γ.

[2] = test system: IL-12p70 production of MoDC; assay: IL-12p70 production by ELISPOT assay (indicator culture); format: cell-based, Human
Method: as §1
(§2) This culture imitates the fate of DC after injecting them into an organism and is designed to test the actual production and release of IL-12 and IL-10 during this phase. This is tested by the well-known ELISPOT-assay. For this phase the previous inducers were either sustained or washed out. Also, further inducers were added. Number of spots as well as the intensity of spots could be read out. Therefore, this setup does more realistically reflect the actual functional state of DC at the time of injection and thereafter.

[3] = test system: MoDC; conditions: Nishiguchi et al. (2001); cited from earlier work
[4] = test system: iMoDC; assay: Phenotype modification: CD14 versus HLA-DR expression and phase contrast morphology; format: cell-based, Human; conditions: non-toxic concentrations, 20-48 hours (Example 3)
Method: Human peripheral blood monocytes were prepared by various well-established techniques. • (1) Blood drawing was carried out in the presence of the anticoagulant EDTA, separation of the nucleated cells by combined density/velocity gradient centrifugation, followed by selective adherence in the culture for one hour. The non-attached cells were washed off and the remaining population of highly enriched monocytes was further cultured. • (2) Alternatively, blood cells were recovered by leukapheresis, followed by counterflow elutriation. The highly enriched monocyte fraction was either freeze protected or taken into culture. Cells were cultured in a humidified incubator (37°C, 5% CO2).

[5] = test system: IL-10 production of MoDC; assay: IL-10 production by ELISPOT assay (indicator culture); format: cell-based, Human
Method: as §1, §2

[6] = non-toxic concentrations, 20-48 hours (Example 3)

## FSL-1
[1]; FSL-1 LP 1 nM, LPS R60 1 µg/ml / IFN-γ 500 IU/ml, single or sequential (Figure 10)
  Maturation of MoDC (surface expression of CD80, CD86, CD83): only incomplete maturation
[1]; [6]
  Costimulatory signals (CD80, CD86): upregulated
  maturation as measured by expression of CD83: No complete maturation
[2]; OspA-LP 10 nM, FSL-1 1 nM, FSL-2 1 nM, alone or combined with IFN-γ (500 IU/ml), 24 hours (Figure 6)
  IL-12p70 production: remains extremely low
[2]; immature DC
  production of IL-12: No effect
[2]; [6]
  IL-12p70 production: only poorly stimulated
[3]
  Maturation of DC: incompletely
[4]
  cell phenotype: modification
[5]; ELISPOT
  IL-10-secretion of immature DC: down-regulation
[5]; OspA-LP 10 nM, FSL-1 1 nM, FSL-2 1 nM, alone or combined with IFN-γ (500 IU/ml), 24 hours, vs untreated (Figure 6)
  IL-10 production: downregulated
[5]; non-toxic concentrations, 20-48 hours, dose-dependent, donor-independent (Example 3)
  IL-10 secreting cells: decrease
